# Where two headings read alike, the source gives them in different places.
# Experiments:
# [1] = test system: relapsed-refractory multiple myeloma (RRMM) patients; test: Efficacy in patients with RRMM, Example 2a; assay type: in vivo, human
# Method: (§1) Example 2: An open label single arm extension on the dose of 40 mg over 30 minutes of Example 1. Intravenous melflufen was administered over 30 minutes on Day 1 of a 21-day cycle or 28-day cycle (in combination with 40 mg dexamethasone (oral or intravenous) treatment on Days 1, 8 and 15) for at least 2 cycles, and up to the stated number of cycles. The cycle length was extended during the Example 2 Clinical Trial from 21 to 28 days per a protocol amendment to allow for a better recovery of neutrophils and thrombocytes before a new cycle is initiated.
# (§2) Example 2a results are from a data cut-off of time point (a). Example 2b results are from a data cut-off of time point (bi) for the efficacy data, which was approximately 12 months after time point (a); and from a data cut-off of time point (bii) for the safety data, which was approximately 10 months after time point (a).
# By the data cut-off point for Example 2a, 38 patients with relapsing MM had been dosed with 40 mg of melflufen hydrochloride (the 40 mg dosage excludes the mass of the salt component) administered over 30 minutes every 3 weeks (21 days) in combination with weekly dexamethasone (day 1, 8 and 15). 162 doses of melflufen were administered in total. The median number of cycles initiated was 3 (1-13) and the median duration of treatment was 13 weeks (2-51). The mean dose intensity was 96% (77-100). By the data cut-off point, ten patients were still in treatment, 2 had completed treatment and 26 patients discontinued from treatment (15 due to AEs, 8 due to PD, 2 deaths and 1 for other reasons). Twenty-seven patients were still in the study (10 patients in treatment and 17 in follow-up), while 11 patients were off study (8 patients due to death, 1 due to PD, 1 withdrew consent and 1 lost in follow-up).
# Twenty-seven patients were evaluable for efficacy (per the protocol, these patients had received at least two cycles of melflufen and had adequate follow-up assessments). 11 patients were not evaluable for response due to rapid early progression (7), early termination due to adverse events (3) or too early to assess (1).
# [2] = test system: relapsed-refractory multiple myeloma (RRMM) patients; test: Safety in patients with RRMM, Example 2a; assay type: in vivo, human; settings: 40 mg
# Method: as §1, §2
# As mentioned above, by the data cut-off for Example 2a 38 patients had been dosed with 162 doses of melflufen hydrochloride 40 mg over 30 minutes. Median number of cycles was 3 (1-13) and median duration of treatment was 13 weeks (2-51 weeks). The dose intensity was 96% (77-100).
# [3] = human, in vivo, iv
# [4] = test system: different human tumors, including MM; settings: at seemingly comparable toxicity; cited from earlier work
# [5] = clinical; settings: human, in vivo, iv; for AUC(0-t): AUC0-4; for AUC(0-inf): AUCinf
# [6] = Evaluable ≥ 2 cycles, n 27, listed as Melflufen
# [7] = Number of refractory agents 0, Example 2a (n = 27)
# [8] = Number of refractory agents 1, Example 2a (n = 27)
# [9] = Number of refractory agents 2, Example 2a (n = 27)
# [10] = Number of refractory agents 3, Example 2a (n = 27)
# [11] = Number of refractory agents 4, Example 2a (n = 27)
# [12] = Pomalidomide refractory, Example 2a, 27 evaluable
# [13] = refractory status None, Example 2a, 27 evaluable
# [14] = refractory status PI + IMiD + Alkylator, Example 2a, 27 evaluable
smiles,measurement,setting,value
"CCOC(=O)[C@H](Cc1ccc(F)cc1)NC(=O)[C@@H](N)Cc1ccc(N(CCCl)CCCl)cc1.Cl [melflufen, L-Melphalanyl-4-fluoro-L-phenylalanine ethyl ester]",Clinical Benefit Rate (CBR),"[1]; Evaluable ≥ 1 cycle, n 35",43%
same,"Minimal Response (MR), patients","[1]; Evaluable ≥ 1 cycle, n 35",4
same,Overall Response Rate (ORR),"[1]; Evaluable ≥ 1 cycle, n 35",31%
same,"Stable Disease (SD), patients","[1]; Evaluable ≥ 1 cycle, n 35",12
same,"Very Good Positive Response (PR), patients","[1]; Evaluable ≥ 1 cycle, n 35",2
same,Clinical Benefit Rate (CBR),"[1]; Evaluable ≥ 2 cycles, n 27",56%
same,"Minimal Response (MR), patients","[1]; Evaluable ≥ 2 cycles, n 27",4
same,Overall Response Rate (ORR),"[1]; Evaluable ≥ 2 cycles, n 27",41%
same,"Positive Response (PR), patients","[1]; Evaluable ≥ 2 cycles, n 27",9
same,"Progressive Disease (PD), patients","[1]; Evaluable ≥ 2 cycles, n 27",1
same,"Stable Disease (SD), patients","[1]; Evaluable ≥ 2 cycles, n 27",11
same,"Very Good Positive Response (PR), patients","[1]; Evaluable ≥ 2 cycles, n 27, 40 mg over 30 min + dexamethasone",2
same,Clinical Benefit Rate (CBR),[1]; [6],56%
same,Overall Response Rate (ORR),[1]; [6],41%
same,median duration of response (DOR),"[1]; Example 2a, 4 events in 11 responding patients",9.6 months
same,median progression free survival (PFS),"[1]; Example 2a, 13 events in 27 patients",9.4 months
same,hazard ratio for melflufen compared to pomalidomide (PFS),"[1]; Example 2a, all treated n=38 vs published pomalidomide trial",0.68 (0.44-1.05)
same,CBR(≥MR),[1]; [7],(100) %
same,ORR (≥PR),[1]; [7],(100) %
same,CBR(≥MR),[1]; [8],(54) %
same,ORR (≥PR),[1]; [8],(38) %
same,CBR(≥MR),[1]; [9],(57) %
same,ORR (≥PR),[1]; [9],(43) %
same,CBR(≥MR),[1]; [10],(63) %
same,ORR (≥PR),[1]; [10],(44) %
same,CBR(≥MR),[1]; [11],(71) %
same,ORR (≥PR),[1]; [11],(43) %
same,CRR (≥MR),[1]; [12],(50) %
same,ORR (≥PR),[1]; [12],(30) %
same,reduction in risk of death over 16 months compared to pomalidomide,"[1]; RRMM patient population, Example 2a",32%
same,CRR (≥MR),"[1]; Triple refractory (2 PI/ImiD + 1 ImiD/PI), Example 2a, 27 evaluable",(60) %
same,"best response of minimal response (MR) or better, n patients",[1]; of 27 evaluable,15
same,"confirmed PR, n patients",[1]; of 27 evaluable,11
same,CRR (≥MR),"[1]; refractory status Alkylator, Example 2a, 27 evaluable",(64) %
same,CRR (≥MR),"[1]; refractory status IMiD, Example 2a, 27 evaluable",(52) %
same,CRR (≥MR),[1]; [13],(100) %
same,ORR (≥PR),[1]; [13],(100) %
same,CRR (≥MR),[1]; [14],(44) %
same,ORR (≥PR),[1]; [14],(33) %
same,CRR (≥MR),"[1]; refractory status PI + IMiD, Example 2a, 27 evaluable",(44) %
same,CRR (≥MR),"[1]; refractory status PI, Example 2a, 27 evaluable",(47) %
same,Serious TEAE related to melflufen: Diarrhoea,[2]; Example 2a,(3) %
same,"Serious TEAE related to melflufen: Diarrhoea, number of patients",[2]; Example 2a,1
same,Serious TEAE related to melflufen: Escherichia coli sepsis,[2]; Example 2a,(3) %
same,"Serious TEAE related to melflufen: Escherichia coli sepsis, number of patients",[2]; Example 2a,1
same,Serious TEAE related to melflufen: Febrile Neutropenia,[2]; Example 2a,(5) %
same,"Serious TEAE related to melflufen: Febrile Neutropenia, number of patients",[2]; Example 2a,2
same,Serious TEAE related to melflufen: Neutropenia,[2]; Example 2a,(3) %
same,"Serious TEAE related to melflufen: Neutropenia, number of patients",[2]; Example 2a,1
same,Serious TEAE related to melflufen: Pneumonia,[2]; Example 2a,(8) %
same,"Serious TEAE related to melflufen: Pneumonia, number of patients",[2]; Example 2a,3
same,Serious TEAE related to melflufen: Pyrexia,[2]; Example 2a,(5) %
same,"Serious TEAE related to melflufen: Pyrexia, number of patients",[2]; Example 2a,2
same,"Anemia, treatment related ≥grade 3",[2]; Example 2a N = 38,(40) %
same,"Any treatment-related grade 3 and/or grade 4, grade 4",[2]; Example 2a N = 38,(50) %
same,"Any treatment-related grade 3 and/or grade 4, ≥grade 3",[2]; Example 2a N = 38,87%
same,"Asthenia, treatment related ≥grade 3",[2]; Example 2a N = 38,(5) %
same,"Blood and lymphatic system disorders, treatment related grade 4",[2]; Example 2a N = 38,(47) %
same,"Blood and lymphatic system disorders, treatment related ≥grade 3",[2]; Example 2a N = 38,(76) %
same,"Fatigue, treatment related ≥grade 3",[2]; Example 2a N = 38,(5) %
same,"Febrile neutropenia, treatment related ≥grade 3",[2]; Example 2a N = 38,(5) %
same,"General disorders and administration site conditions, treatment related ≥grade 3",[2]; Example 2a N = 38,(18) %
same,"Hyperglycemia, treatment related grade 4",[2]; Example 2a N = 38,(3) %
same,"Hyperglycemia, treatment related ≥grade 3",[2]; Example 2a N = 38,(8) %
same,"Infections and infestations, treatment related ≥grade 3",[2]; Example 2a N = 38,(8) %
same,"Investigations, treatment related ≥grade 3",[2]; Example 2a N = 38,(10) %
same,"Leukopenia, treatment related grade 4",[2]; Example 2a N = 38,(13) %
same,"Leukopenia, treatment related ≥grade 3",[2]; Example 2a N = 38,(34) %
same,"Metabolism and nutrition disorders, treatment related grade 4",[2]; Example 2a N = 38,(3) %
same,"Metabolism and nutrition disorders, treatment related ≥grade 3",[2]; Example 2a N = 38,(8) %
same,"Neutropenia, treatment related grade 4",[2]; Example 2a N = 38,(26) %
same,"Neutropenia, treatment related ≥grade 3",[2]; Example 2a N = 38,(53) %
same,"Neutrophil count decreased, treatment related ≥grade 3",[2]; Example 2a N = 38,(10) %
same,"Pneumonia, treatment related ≥grade 3",[2]; Example 2a N = 38,(8) %
same,"Pyrexia, treatment related ≥grade 3",[2]; Example 2a N = 38,(5) %
same,"Thrombocytopenia, treatment related grade 4",[2]; Example 2a N = 38,(34) %
same,"Thrombocytopenia, treatment related ≥grade 3",[2]; Example 2a N = 38,(68) %
same,"Any treatment-related grade 3 and/or grade 4, ≥grade 3","[2]; Example 2a N = 38, listed as melflufen hydrochloride",(87) %
same,patients with Serious TEAEs,"[2]; Example 2a, 38 patients",34%
same,patients with TEAEs leading to death,"[2]; Example 2a, 38 patients",8%
same,patients with TEAEs leading to dose reduction of melflufen,"[2]; Example 2a, 38 patients",18%
same,patients with grade 3 or 4 TEAEs,"[2]; Example 2a, 38 patients",90%
same,patients with treatment-related Serious TEAEs,"[2]; Example 2a, 38 patients",21%
same,time after end of infusion within which melflufen is no longer measurable,[3],≤ 15 min
same,tmax,[3]; 25 mg,15 min
same,tmax,[3]; 40 mg,25 min
same,antitumor activity over equimolar dosage of melphalan,[4],superior antitumor activity
same,AUC(0-t),[5]; 15 mg,13.5 ng·h/mL
same,AUC(0-inf),[5]; 15 mg,16.3 ng·h/mL
same,Cmax,[5]; 15 mg,39 ng/mL
same,half-life,"[5]; 15 mg, T1/2",13 min
same,tmax,[5]; 15 mg,15 min
same,AUC(0-t),[5]; 25 mg,40.8 ng·h/mL
same,AUC(0-inf),[5]; 25 mg,40.8 ng·h/mL
same,Cmax,[5]; 25 mg,102 ng/mL
same,half-life,"[5]; 25 mg, T1/2",4.6 min
same,tmax,[5]; 25 mg,12 min
same,AUC(0-t),[5]; 40 mg,89.3 ng·h/mL
same,AUC(0-inf),[5]; 40 mg,89.3 ng·h/mL
same,Cmax,[5]; 40 mg,222 ng/mL
same,half-life,"[5]; 40 mg, T1/2",1.1 min
same,tmax,[5]; 40 mg,15 min
same,AUC(0-t),[5]; 55 mg,102 ng·h/mL
same,AUC(0-inf),[5]; 55 mg,102 ng·h/mL
same,Cmax,[5]; 55 mg,245 ng/mL
same,half-life,"[5]; 55 mg, T1/2",2.7 min
same,tmax,[5]; 55 mg,25 min
same,half-life,[5]; half-life of melflufen concentrations after end of infusion,3 to 5 min

# Reference: patent US20220047507A1, “MELFLUFEN DOSAGE REGIMENS FOR CANCER” (ONCOPEPTIDES AB, priority 2015, published 2022)
